Reference: US7514245B2, “Method for producing chiral α-hydroxycarboxylic acids by enzymatic hydrolysis of chiral cyanohydrins” (DSM Fine Chemicals Austria NFG GmbH & Co. KG, priority 2003, dated 2009)

Legend:
[1] = system: Rhodococcus erythropolis NCIMB 11540 cells; assay: Enzymatic hydrolysis at different substrate concentrations, Experiment 4.2; type: cell-based; details: 5% DMSO, 30° C., resting cells
Protocol: In experiment 4.2, the reaction was carried out using 2 different substrate concentrations (10 g/l, 20 g/l) on a 5 ml scale.
The biocatalyst was produced according to Example 1, Variant II, 2 l fermentation medium, harvest after 19 hours (OD546 8.4). The cells were resuspended in approximately 140 ml of buffer (resting cells, OD546 52). In each case 4.75 ml of this cell suspension were used for the enzymatic reactions.
Two different concentrations of (R)-2-chloromandelonitrile were studied in parallel batches. The reaction was started by adding 250 μl of substrate solution and was carried out in culture tubes in the shaking cabinet at 30° C. and 130 rpm. To monitor the conversion rate, in each case 200 μl were withdrawn and admixed with 200 μl of 1N HCl. After centrifugation (5 min, 13 000 rpm) and dilution, the conversion rates were determined by HPLC. • a. 50 mg of (R)-2-chloromandelonitrile, dissolved in 250 μl of DMSO ([S]=60 mM, 10 g/l, cosolvent: 5% DMSO)

[2] = system: Rhodococcus erythropolis NCIMB 11540 cells; assay: Enzymatic hydrolysis using different cosolvents, Experiment 5.2; type: cell-based; details: 10 g/l, 30° C.
Protocol: Here, the solvents DMSO, EtOH and ^iPrOH were again used at a fraction of 5%; the substrate concentration was 10 g/l of (R)-2-chloromandelonitrile. The reaction was carried out on a 5 ml scale.
Production of the biocatalyst Example 4, Experiment 4.2 (OD546 8.4). In each case 4.75 ml of the cell suspension (resting cells, OD546 52) were used for the enzymatic reactions. Reactions of (R)-2-chloromandelonitrile (>99%) dissolved in DMSO, EtOH and i-PrOH were carried out in culture tubes at 150 rpm and 30° C. (parallel batches).
To monitor the conversion rate by means of HPLC, in each case 200 μl of sample were admixed with 200 μl of 1N HCl, centrifuged (5 min, 13 000 rpm) and diluted before measurement. After complete conversion, the ee of the product was determined. • a. 50 mg of (R)-2-chloromandelonitrile, dissolved in 250 μl of DMSO ([S]=60 mM, 10 g/l, cosolvent: 5% DMSO)

[3] = system: Rhodococcus erythropolis NCIMB 11540 cells; assay: Enzymatic hydrolysis at different temperatures, Experiment 6.2; type: cell-based; details: after 2 h, 10 g/l, 3% DMSO
Protocol: In Experiment 6.2, the temperature was increased to 50° C.
The biocatalyst was produced according to Example 4, Experiment 4.3 (OD546 44). In each case 4.85 ml of the cell suspension (resting cells, OD546 44) were used for the enzymatic reactions. Reactions of 50 mg of (R)-2-chloromandelonitrile (>99%) ([S]=60 mM, 10 g/l), dissolved in 150 μl DMSO (3%) were carried out at 3 different temperatures (30° C., 40° C., 50° C.) in culture tubes at 150 rpm (parallel batches).
(§1) To monitor the conversion rate by means of HPLC, in each case 200 μl of sample were admixed with 200 μl of 1N HCl, centrifuged (5 min, 13 000 rpm) and diluted before measurement. After complete reaction, the ee of the product was determined.

[4] = system: Rhodococcus erythropolis NCIMB 11540 cells; assay: Enzymatic hydrolysis using resting cells and lyophilized cells (Example 3); type: cell-based; details: approximately 20 mM substrate, 30° C.
Protocol: The biocatalyst was produced in a similar manner to Example 1, Variant I, 2 culture flasks. After 20 hours (OD546=3.5 and 1.8), cells were centrifuged off from 4 times 10 ml aliquots of fermentation broth and washed once with K/Na—PO4 buffer (pH 6.5, 50 mM). Two of the cell samples were lyophilized before activity determination, and the other two were used as resting cells.
The cells were resuspended in 1.8 ml K/Na—PO4 buffer (pH 6.5, 50 mM) (lyophilized cells were shaken for 1 h for rehydration). The reaction was started by adding 200 μl of a 200 mM substrate solution in DMSO (substrate concentration approximately 20 mM) and carried out at 30° C. and 130 rpm in the shaking cabinet. After 30 min, 60 min and 17 h, 200 μl were withdrawn and admixed with 200 μl of 1N HCl. After centrifugation (5 min, 13 000 rpm) and dilution, the conversion rates were determined by means of HPLC. Only the substrate and the two products were taken into consideration in this. The substrate used was (R)-2-chloromandelonitrile (ee>99%). The results are shown in Tab. 3.

[5] = system: Rhodococcus erythropolis NCIMB 11540 cells; assay: Enzymatic hydrolysis at different temperatures, Experiment 6.1; type: cell-based; details: after 2 h, 10 g/l, 5% DMSO
Protocol: In Experiment 6.1, the course of the reaction was compared at reaction temperatures of 30° C., 35° C. and 40° C. The batches were carried out on a 5 ml scale using a substrate concentration of 10 g/l of (R)-2-chloromandelonitrile. After complete reaction, the ee of the product was determined.
The biocatalyst was produced according to Example 4, Experiment 4.2 (OD546 8.4). In each case 4.75 ml of the cell suspension (resting cells, OD546 52) were used for the enzymatic reactions. Reactions of 50 mg of (R)-2-chloromandelonitrile (>99%) ([S]=60 mM, 10 g/l), dissolved in 250 μl of DMSO (5%) were carried out at 3 different temperatures (30° C., 35° C., 40° C.) in culture tubes at 150 rpm (parallel batches).
as §1

[6] = system: Rhodococcus erythropolis NCIMB 11540 cells; assay: Enzymatic hydrolysis at different substrate concentrations, Experiment 4.3; type: cell-based; details: after 2 h, 3% DMSO, 40° C., resting cells
Protocol: In experiment 4.3, reactions were carried out using 10 g/l and 15 g/l of (R)-2-chloromandelonitrile. In addition, after complete conversion, the ee of the hydroxy acid formed was determined.
The biocatalyst was produced according to Example 1, Variant II, 2.75 l of the fermentation medium, harvest after 20 hours. The cells were resuspended in approximately 200 ml of buffer (resting cells, OD546 44). In each case 4.85 ml of this cell suspension were used for the enzymatic reactions.
Two different concentrations of (R)-2-chloromandelonitrile were studied in parallel batches. The reaction was started by adding 150 μl of substrate solution and was carried out in culture tubes in the shaking cabinet at 40° C. and 150 rpm. The conversion rate was monitored by means of HPLC. At complete conversion, the hydroxy acid was extracted after acidification and the ee was determined. • a. 50 mg of (R)-2-chloromandelonitrile, dissolved in 150 μl of DMSO ([S]=60 mM, 10 g/l, cosolvent: 3% DMSO)

[7] = target: T1, Rhodococcus erythropolis NCIMB 11540 nitrile hydratase (Rhodococcus erythropolis, UniProt P13448+P13449); assay: Nitrile hydratase activity determination of crude lysates with methacrylonitrile; type: biochemical; details: 40 mM methacrylonitrile in PBS, 28° C.
T1 construct: made in house; host or cells: E. coli B BL21 (plasmid pMS470Nhase7.3 or pMSNhasetactac7.3), crude lysate
T1 sequence (P13448 1-207): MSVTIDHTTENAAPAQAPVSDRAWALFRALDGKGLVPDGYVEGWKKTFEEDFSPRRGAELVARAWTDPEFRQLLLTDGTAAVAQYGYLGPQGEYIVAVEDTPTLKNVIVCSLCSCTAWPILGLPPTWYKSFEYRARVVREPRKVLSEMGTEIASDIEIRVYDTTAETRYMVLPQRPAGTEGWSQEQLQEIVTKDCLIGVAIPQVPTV
T1 sequence (P13449 1-212): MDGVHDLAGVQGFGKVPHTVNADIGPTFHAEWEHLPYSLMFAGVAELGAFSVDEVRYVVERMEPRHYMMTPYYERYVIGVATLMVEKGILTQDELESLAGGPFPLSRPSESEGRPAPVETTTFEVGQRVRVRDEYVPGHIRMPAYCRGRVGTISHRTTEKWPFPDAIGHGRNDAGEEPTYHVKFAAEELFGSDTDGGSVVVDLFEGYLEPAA
Protocol: The E. coli B BL21 cells transformed by pMS470Nhase7.3 (or pMSNhasetactac7.3) were isolated on LB-ampicillin plates and an ONC of 100 ml of LB-ampicillin medium was inoculated with an individual colony. On the next morning a main culture consisting of 250 ml of LB-ampicillin medium was inoculated in a 1000 ml chicane flask to an OD600 of 0.01 to 0.03 (Beckmann Photometer). The growth temperature was controlled at 25° C., since at higher temperatures insoluble inclusion bodies are formed exclusively. After the induction density was reached (OD600=1 Beckmann Photometer), the cultures were induced by adding IPTG to give a concentration of 0.1 mM. In addition, the media were supplemented with 0.1 mM ammonium iron(III) citrate. After reaching an OD600>4, the cultures were harvested (centrifugation at approximately 3000-g for 15 min) and washed once with approximately 100 ml of PBS buffer. […]
Activity determination: crude lysates were diluted 1:10 with PBS buffer immediately before activity determination. […] After centrifugation (16 000·g, 10 minutes), the samples were analyzed spectrophotometrically at 224 nm (Perkin Elmer UV/VIS Spectrometer Lambda Bio). […]

[8] = lyophilized cells (19 mg/ml), 30 min
[9] = lyophilized cells (19 mg/ml), 60 min
[10] = lyophilized cells (19 mg/ml), 17 h
[11] = resting cells, 30 min, culture 1 (OD546 3.5)

N#C[C@H](O)c1ccccc1Cl [(R)-2-chloromandelonitrile] was tested, and the hydroxy acid formed ([1]; after 2 h, 10 g/l (60 mM)) was “approximately 40%”, the hydroxy acid formed ([1]; after 18 h, 20 g/l (120 mM)) was 36% and the hydroxy acid formed ([1]; after 43 h, 20 g/l (120 mM)) was 41%. The hydroxy acid formed ([2]; after 2 h, cosolvent 5% DMSO) was “approximately 40%”, the hydroxy acid formed ([2]; after 3 h, cosolvent 5% EtOH) was 35% and the hydroxy acid formed ([2]; after 3 h, cosolvent 5% i-PrOH) was 8%. For the same compound, the “hydrolysis to form the hydroxy acid complete” value ([2]; after 19 h, cosolvent 5% EtOH) was 94%, the hydroxy acid formed ([2]; after 44 h, cosolvent 5% i-PrOH) was 64% and the hydroxy acid formed ([3]; T=30° C.) was 42%. For the same compound, the hydroxy acid formed ([3]; T=40° C.) was 80%, the hydroxy acid formed ([3]; T=50° C.) was 92% and the “Conversion rate CH (cyanohydrin)” value [4, 8] was 40%. The “Conversion rate HA (hydroxyamide)” value [4, 8] was <1%, the “Conversion rate CH (cyanohydrin)” value [4, 9] was 41% and the “Conversion rate HA (hydroxyamide)” value [4, 9] was 0%. The “Conversion rate CH (cyanohydrin)” value [4, 10] was 43%, the “Conversion rate HA (hydroxyamide)” value [4, 10] was <1% and the “Conversion rate CH (cyanohydrin)” value [4, 11] was 100%. For the same compound, the “Conversion rate HA (hydroxyamide)” value [4, 11] was 2%, the “Conversion rate HA (hydroxyamide)” value ([4]; resting cells, 60 min, culture 1 (OD546 3.5)) was 4% and the “Conversion rate HA (hydroxyamide)” value ([4]; resting cells, 17 h, culture 1 (OD546 3.5)) was 42%. For the same compound, the hydroxy acid formed ([5]; T=30° C.) was 42%, the hydroxy acid formed ([5]; T=35° C.) was 65% and the hydroxy acid formed ([5]; T=40° C.) was 86%. For the same compound, the hydroxy acid formed ([6]; 10 g/l (60 mM)) was 80% and the hydroxy acid formed ([6]; 15 g/l (90 mM)) was “approximately 60%”.

With C=C(C)C#N [methacrylonitrile] the “typical activity of crude lysates” value ([7]; pMS470Nhase7.3 lysate) was 100-250 U/ml and the “typical activity of crude lysates” value ([7]; pMSNhasetactac7.3 lysate) was 350-500 U/ml.
